# Measured values as given in the NIST ThermoML archive (doi:10.1021/je101199g).
# Numbers after ± are expanded uncertainties.
# Conditions: Crystal
row,Normal melting temperature,SMILES
1,146.23 ± 1.2 °C,Cc1ncc[nH]1 [2-methylimidazole]
2,5.01 ± 0.62 °C,COC(=O)OC [dimethyl carbonate]
3,80.81 ± 1.2 °C,O=C(Oc1ccccc1)Oc1ccccc1 [diphenyl carbonate]
4,23.36 ± 0.62 °C,CCCCCCCCCCCCO [dodecan-1-ol]
